Here are results for 10 molecules from patent US7935700B2, “Morpholine compound” (Mitsubishi Tanabe Pharma Corporation, priority 2004, dated 2011).

Structures can show the parent of a compound that is named as a salt. Where two headings read alike, the source gives them in different places.

The target in one test is human eosinophils. In words: Binding inhibitory test of chemokine ([125I]-eotaxin) to human eosinophils. To be noted: 50 pmol/L [125I]-eotaxin, 2x10^5 eosinophils, 25°C, 1 hr; read-out: IC50 (concentration of test compound necessary for decreasing binding of [125I]-eotaxin to human eosinophils by 50%). The protocol: Binding Inhibitory Test of Chemokine to Human Eosinophils
Human eosinophils were separated by the CD16 negative selection method from anticoagulation-treated peripheral blood of healthy subject (e.g., J. Immunol. Methods, vol. 145, pages 105-110, 1991). The separated eosinophils (2×10^5 cells), 50 pmol/L[^125I]-eotaxin (2000 Ci/mmoL, manufactured by Amersham Pharmacia Biotech) and a test compounds were mixed in 0.1 mL of binding buffer (50 mmol/L HEPES, 1 mmol/L CaCl2, 5 mmol/L MgCl2, 0.5% bovine serum albumin (BSA), 0.1% sodium azide, pH 7.4), and the mixture was incubated in a multiscreen plate (manufactured by MILLIPORE) at 25° C. for 1 hr. After incubation, the reaction mixture in the multiscreen plate was filtered by vacuum manifold, and washed with 0.6 mL of a cold washing buffer (50 mmol/L HEPES, 1 mmol/L CaCl2, 5 mmol/L MgCl2, 0.5 mol/L NaCl, 0.1% sodium azide, pH 7.4), and the radioactivity maintained on the filter was measured. […] The IC50 values (concentration of test compound necessary for decreasing binding of [^125I]-eotaxin to human eosinophils by 50%) of some of the compounds of the present invention were as follows.

The target in another test is T1, CCR3 (Homo sapiens, UniProt P51677).
T1 construct: Eosinophils separated from peripheral blood of healthy subject; endogenous in cells; host or cells: eosinophils separated from peripheral blood of healthy subject
T1 sequence (P51677 1-355): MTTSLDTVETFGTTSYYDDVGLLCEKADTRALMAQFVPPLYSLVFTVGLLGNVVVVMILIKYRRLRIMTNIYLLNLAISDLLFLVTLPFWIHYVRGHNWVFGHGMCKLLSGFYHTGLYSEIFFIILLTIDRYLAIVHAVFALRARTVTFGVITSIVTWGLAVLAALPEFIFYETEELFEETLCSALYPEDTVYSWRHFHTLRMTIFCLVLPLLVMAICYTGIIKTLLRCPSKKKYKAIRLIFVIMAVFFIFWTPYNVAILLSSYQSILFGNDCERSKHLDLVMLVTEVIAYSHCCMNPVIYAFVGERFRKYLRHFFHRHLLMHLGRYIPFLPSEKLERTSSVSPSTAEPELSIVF
In words: Effect on intracellular calcium concentration in eosinophils upon CCL11 stimulation. As to conditions: peripheral blood eosinophils of healthy subject, agonist CCL11 1.0 nmol/L, compound 3 min before stimulation, Fura-2 AM; read-out: IC50 (50% suppression of the increase in the intracellular calcium concentration). Type of test: cell-based. The protocol: Effect on Intracellular Calcium Concentration
The effect of the compound of the present invention on intracellular calcium mobilization in peripheral blood eosinophils of healthy subject upon CCL11 stimulation was examined by the following method.
Eosinophils separated from peripheral blood of healthy subject were suspended in 0.5% bovine serum albumin-containing phosphate buffered saline, and incubated at 37° C. for 45 min in the presence of 5 μmol/L of Fura-2 AM (manufactured by DOJINDO LABORATORIES).
After incubation, the cells were washed 3 times with a measurement buffer (10 mmol/L HEPES, and 0.5% bovine serum albumin-containing hanks' balanced salt solution) to remove Fura-2 AM that was not incorporated into the cells.
Finally, the cells were adjusted to 1×10^6 cells/mL with the measurement buffer and preserved in a dark place until measurement. The intracellular calcium was measured using FDSS3000 manufactured by Hamamatsu Photonics K.K. In other words, the cell suspension (0.1 mL) loaded with Fura-2 AM was placed in a 96 well plate for measurement, the fluorescence intensity to the excitation light at wavelengths 340 nm and 380 nm was measured by FDSS3000, the ratio of the fluorescence intensity to the excitation light at these two wavelengths was determined, based on which the intracellular calcium concentration was calculated. As the agonist, used was CCL11 (1.0 nmol/L), which is a CCR3 selective ligand, and the antagonistic activity was determined as 50% suppression rate (IC50 value) of the increase in the intracellular calcium concentration, when eosinophils were treated with various concentrations of the compound of the present invention at 3 min before agonist stimulation.

For test [1], the system named is mouse ovalbumin (OVA) induced allergic and biphasic ear edema. Kind of test: Antigen (OVA) induced allergic and biphasic ear edema model. Format: in vivo. As to conditions: male BALB/c mice, oral once a day from 2 days before induction, 3 or 10 mg/kg tested. The protocol:
3: Effect on Antigen Induced Allergic and Biphasic Ear Edema Model
The in vivo effect of the compound of the present invention was examined using a mouse ovalbumin (OVA) induced allergic and biphasic ear edema model. The model was prepared according to the method of Sugawara et al. (Allergy & Clinical Immunology International, Supplement No. 2, P 785, 2000). In other words, male BALB/c mice were immunized by intraperitoneal injection with 10 μg of OVA and 1 mg of aluminum hydroxide gel (Alum). At 14 days after immunization, OVA (5 μg) were subcutaneously injected to the both ears of the mouse, whereby ear edema was induced. The thickness of the ears was measured using a dial sickness gauge immediately before subcutaneous injection and 1 and 24 hrs after subcutaneous injection of OVA. The compound of the present invention was suspended in a vehicle, 0.5% hydroxypropylmethyl cellulose solution, and orally administered at 3 mg/kg or 10 mg/kg once a day using an orally gavage needle from 2 days before ear edema induction.

Setting [2] is: ear thickness 1 hr after OVA, read-out: Dose that showed a significant suppressive action vs vehicle, Immediate phase.
Setting [3] is: ear thickness 24 hrs after OVA, read-out: Dose that showed a significant suppressive action vs vehicle, Late phase.

For `NC(=O)CNC(=O)c1csc(SCC(=O)NC[C@H]2CN(Cc3ccc(Cl)c(Cl)c3)CCO2)n1` [Example 17, (2S)-{4-[(2-amino-2-oxoethyl)aminocarbonyl]thiazol-2-ylthio}-N-{[4-(3,4-dichlorobenzyl)morpholin-2-yl]methyl}acetamide], the IC50 on human eosinophils was found to be 0.9 nM; on CCR3 it was 2.5 nM. The minimal effective dose in test [1] (setting [2]) and in test [1] (setting [3]) was 3 mg/kg in each case.
For the molecule `Nc1ccc2c(c1)-c1nc(SCC(=O)NC[C@H]3CN(Cc4ccc(Cl)c(Cl)c4)CCO3)sc1C2` [Example 27, (2S)-(5-amino-8H-indeno[1,2-d]thiazol-2-ylthio)-N-{[4-(3,4-dichlorobenzyl)morpholin-2-yl]methyl}acetamide], at human eosinophils, the IC50 is 2.3 nM.
Regarding `COc1ccc(-c2csc(SCC(=O)NC[C@H]3CN(Cc4ccc(Cl)c(Cl)c4)CCO3)n2)cc1OC` [Example 13, (2S)-N-{[4-(3,4-dichlorobenzyl)morpholin-2-yl]methyl}-[4-(3,4-dimethoxyphenyl)thiazol-2-ylthio]acetamide], the IC50 at human eosinophils worked out at 0.4 nM.
With `NC(=O)c1cc(-c2csc(SCC(=O)NC[C@H]3CN(Cc4ccc(Cl)c(Cl)c4)CCO3)n2)ccc1O` [Example 10, (2S)-[4-(3-carbamoyl-4-hydroxyphenyl)thiazol-2-ylthio]-N-{[4-(3,4-dichlorobenzyl)morpholin-2-yl]methyl}acetamide], the IC50 at human eosinophils was determined as 2.4 nM.
Turning to `Cc1nc(-c2csc(SCC(=O)NC[C@H]3CN(Cc4ccc(Cl)c(Cl)c4)CCO3)n2)no1` [Example 23, (2S)-N-{[4-(3,4-dichlorobenzyl)morpholin-2-yl]methyl}-[4-(5-methyl-1,2,4-oxadiazol-3-yl)thiazol-2-ylthio]acetamide hydrochloride], the IC50 on human eosinophils is 1 nM; on CCR3 it was 0.8 nM.
`O=C(CSc1ccc(C(=O)O)cc1)NC[C@H]1CN(Cc2ccc(Cl)c(Cl)c2)CCO1` [Example 37, (2S)-(4-carboxyphenylthio)-N-{[4-(3,4-dichlorobenzyl)morpholin-2-yl]methyl}acetamide]: the IC50 on human eosinophils is 34.3 nM; on CCR3 it was 4.9 nM. In addition, the minimal effective dose in test [1] (setting [2]) and in test [1] (setting [3]) was 3 mg/kg throughout.
Consider `NC(=O)c1csc(SCC(=O)NC[C@H]2CN(Cc3ccc(Cl)c(Cl)c3)CCO2)n1` [Example 15, (2S)-(4-carbamoylthiazol-2-ylthio)-N-{[4-(3,4-dichlorobenzyl)morpholin-2-yl]methyl}acetamide], for which the IC50 stood at 0.4 nM on human eosinophils and 1.6 nM at CCR3.
Take `O=C(O)Cc1csc(SCC(=O)NC[C@H]2CN(Cc3ccc(Cl)c(Cl)c3)CCO2)n1` [Example 2, (2S)-[4-(carboxymethyl)thiazol-2-ylthio]-N-{[4-(3,4-dichlorobenzyl)morpholin-2-yl]methyl}acetamide]: the IC50 on human eosinophils was 2.4 nM; at CCR3 it was 1.8 nM. Besides, the minimal effective dose in test [1] (setting [2]) and in test [1] (setting [3]) was 3 mg/kg each time.
For `Nc1cccc(-c2csc(SCC(=O)NC[C@H]3CN(Cc4ccc(Cl)c(Cl)c4)CCO3)n2)c1` [Example 9, (2S)-[4-(3-aminophenyl)thiazol-2-ylthio]-N-{[4-(3,4-dichlorobenzyl)morpholin-2-yl]methyl}acetamide], on human eosinophils, the IC50 came to 12.7 nM.
With `O=C(CSc1nc(-c2ccncc2)cs1)NC[C@H]1CN(Cc2ccc(Cl)c(Cl)c2)CCO1` [Example 11, (2S)-N-{[4-(3,4-dichlorobenzyl)morpholin-2-yl]methyl}-[4-(pyridin-4-yl)thiazol-2-ylthio]acetamide], at human eosinophils, the IC50 was 0.8 nM.
